The values that follow come from US12600709B2, “Nonpeptide somatostatin type 5 receptor agonists and uses thereof” (Crinetics Pharmaceuticals, Inc., priority 2019, dated 2026).

Where two headings read alike, the source gives them in different places.

The target of experiment [1] is T1, human somatostatin receptor subtype 2 (Homo sapiens, UniProt P30874).
T1 construct: expressed in transfected cells
Briefly: cAMP assay for SST2R (inhibition of cAMP in CHO-K1 cells). It is filed as cell-based. To be noted: Table B; inhibition of cAMP via human SST2 receptor; read-out: SST2 potency. An outline of the steps:
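Agonism read as decrease in NKH477 (1.6 μM)-stimulated cAMP: compounds applied 20 min, 37° C, with 0.2 mM IBMX, to CHO-K1 stably expressing human SSTR2. cAMP quantified in lysates by time-resolved fluorescence (HTRF kit, 1-24 h RT), standard-curve regression, then EC50.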
A general note: Changes in cAMP serve as a functional read-out for many G protein-coupled receptors.

For experiment [2], the target named is T2, human somatostatin receptor subtype 5 (Homo sapiens, UniProt P35346).
T2 construct: expressed in transfected cells
T2 sequence (P35346 whole entry): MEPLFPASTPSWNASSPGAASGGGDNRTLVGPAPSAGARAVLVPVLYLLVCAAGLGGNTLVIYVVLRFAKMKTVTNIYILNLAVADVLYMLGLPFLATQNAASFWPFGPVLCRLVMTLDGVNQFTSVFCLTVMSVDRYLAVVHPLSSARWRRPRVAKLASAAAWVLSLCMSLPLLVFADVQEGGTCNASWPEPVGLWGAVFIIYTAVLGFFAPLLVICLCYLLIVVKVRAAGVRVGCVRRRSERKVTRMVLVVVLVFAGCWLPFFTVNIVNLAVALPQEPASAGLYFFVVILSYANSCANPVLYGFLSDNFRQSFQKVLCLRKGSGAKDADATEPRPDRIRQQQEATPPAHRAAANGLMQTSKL
Briefly: cAMP assay for SST5R (inhibition of cAMP in CHO-K1 cells). The experiment is classed as cell-based. The following applies: for EC50: inhibition of cAMP via human SST5 receptor, read-out: SST5 potency. An outline of the steps: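 CHO-K1 cells stably expressing human SSTR5 were treated 20 min at 37 °C with compounds plus 1.6 μM NKH477 in HBSS, 0.5 mM HEPES pH 7.4, 0.1% BSA, 0.2 mM IBMX. Lysate cAMP measured by HTRF against a standard curve; EC50 from cAMP-versus-concentration plots.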

The mark [3] stands for this setting: Table B, class symbols, SST5 receptor over SST2 receptor.

T1 sequence (P30874 whole entry): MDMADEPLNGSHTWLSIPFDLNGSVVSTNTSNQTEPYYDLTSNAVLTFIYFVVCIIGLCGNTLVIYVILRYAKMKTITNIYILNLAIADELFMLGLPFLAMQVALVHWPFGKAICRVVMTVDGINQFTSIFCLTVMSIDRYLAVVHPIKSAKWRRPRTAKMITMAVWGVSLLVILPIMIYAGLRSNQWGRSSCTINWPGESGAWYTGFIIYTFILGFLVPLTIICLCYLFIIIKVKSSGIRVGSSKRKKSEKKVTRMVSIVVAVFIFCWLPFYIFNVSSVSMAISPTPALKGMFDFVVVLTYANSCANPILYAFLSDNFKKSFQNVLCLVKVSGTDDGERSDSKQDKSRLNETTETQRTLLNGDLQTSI

Regarding `Cc1cccc2[nH]c(-c3cncc(C(=O)N4CCC[C@H]4C(F)(F)F)c3N3CC[C@](C)(N)C3)nc12` [2-41, (3S)-3-methyl-1-[3-(4-methyl-1H-1,3-benzodiazol-2-yl)-5-[(2S)-2-(trifluoromethyl)pyrrolidine-1-carbonyl]pyridin-4-yl]pyrrolidin-3-amine], the EC50 in experiment [1] is 100 to 1000 nM; in experiment [2] (Table A), less than 10 nM; in experiment [2] (Table B) it was less than 10 nM. For the same molecule, in experiment [2] (setting [3]), the “Fold selectivity for SST5 vs SST2” value is “+ (+=10 to 99)”.
In the case of `C[C@]1(N)CCN(c2c(C(=O)NCC3(F)CCC3)cncc2-c2cc(F)cc(F)c2)C1` [1-47, 4-[(3S)-3-amino-3-methylpyrrolidin-1-yl]-5-(3,5-difluorophenyl)-N-[(1-fluorocyclobutyl)methyl]pyridine-3-carboxamide], the EC50 is 100 to 1000 nM in experiment [1], less than 10 nM in experiment [2] (Table A) and less than 10 nM in experiment [2] (Table B). Besides, in experiment [2] (setting [3]), the “Fold selectivity for SST5 vs SST2” value was “+++ (+++=>500)”.
For `COc1ncc(C(=O)N[C@@H](C)C(F)(F)F)c(N2CC[C@](C)(N)C2)c1-c1c(C)noc1C` [1-187, 4-[(3S)-3-amino-3-methylpyrrolidin-1-yl]-5-(3,5-dimethyl-1,2-oxazol-4-yl)-6-methoxy-N-[(2S)-1,1,1-trifluoropropan-2-yl]pyridine-3-carboxamide], the EC50 was more than 1000 nM in experiment [1], less than 10 nM in experiment [2] (Table A) and less than 10 nM in experiment [2] (Table B). The “Fold selectivity for SST5 vs SST2” value in experiment [2] (setting [3]) was “+++ (+++=>500)”.
As to `Cc1cccc2[nH]c(-c3cncc(C(=O)N(C)[C@@H](C)C4CC4)c3N3CC[C@](C)(N)C3)nc12` [2-29, 4-[(3S)-3-amino-3-methylpyrrolidin-1-yl]-N-[(1S)-1-cyclopropylethyl]-N-methyl-5-(4-methyl-1H-1,3-benzodiazol-2-yl)pyridine-3-carboxamide], the EC50 in experiment [1] was 10 to 100 nM; in experiment [2] (Table A), less than 10 nM; in experiment [2] (Table B) it was less than 10 nM. For the same molecule, the “Fold selectivity for SST5 vs SST2” value in experiment [2] (setting [3]) is reported as “+ (+=10 to 99)”.
Consider `COc1ncc(C(=O)N[C@@H](C)C2CC2)c(N2CC[C@](C)(N)C2)c1-c1cccc(OC(F)F)c1` [1-165, 4-[(3S)-3-amino-3-methylpyrrolidin-1-yl]-N-[(1S)-1-cyclopropylethyl]-5-[3-(difluoromethoxy)phenyl]-6-methoxypyridine-3-carboxamide], for which the EC50 in experiment [1] was 100 to 1000 nM; in experiment [2] (Table A), less than 10 nM; in experiment [2] (Table B) it was less than 10 nM. Moreover, the “Fold selectivity for SST5 vs SST2” value in experiment [2] (setting [3]) is on record as “+++ (+++=>500)”.
In the case of `C[C@H](NC(=O)c1cnc(C#N)c(-c2cc(F)cc(F)c2)c1N1CC[C@H](N)C1)C1CC1` [1-69, 4-[(3S)-3-aminopyrrolidin-1-yl]-6-cyano-N-[(1S)-1-cyclopropylethyl]-5-(3,5-difluorophenyl)pyridine-3-carboxamide], the EC50 was 100 to 1000 nM in experiment [1], less than 10 nM in experiment [2] (Table A) and less than 10 nM in experiment [2] (Table B). Further, in experiment [2] (setting [3]), the “Fold selectivity for SST5 vs SST2” value is on record as “+++ (+++=>500)”.
Regarding `C[C@]1(N)CCN(c2c(C(=O)NC3CCCCCC3)ccnc2-c2cc(F)cc(F)c2)C1` [3-6, 3-[(3S)-3-amino-3-methylpyrrolidin-1-yl]-N-cycloheptyl-2-(3,5-difluorophenyl)pyridine-4-carboxamide], the EC50 in experiment [1] is more than 1000 nM; in experiment [2] (Table A), less than 10 nM; in experiment [2] (Table B), less than 10 nM. In addition, the “Fold selectivity for SST5 vs SST2” value in experiment [2] (setting [3]) is given as “+++ (+++=>500)”.
`COC[C@@]1(N)CCN(c2c(C(=O)N[C@@H](C)C3CC3)cnc(C#N)c2-c2cc(F)cc(F)c2)C1` [1-116, 4-[(3R)-3-amino-3-(methoxymethyl)pyrrolidin-1-yl]-6-cyano-N-[(1S)-1-cyclopropylethyl]-5-(3,5-difluorophenyl)pyridine-3-carboxamide]: the EC50 in experiment [1] is more than 1000 nM; in experiment [2] (Table A), less than 10 nM; in experiment [2] (Table B), less than 10 nM. Besides, in experiment [2] (setting [3]), the “Fold selectivity for SST5 vs SST2” value is “+++ (+++=>500)”.
For the molecule `C[C@H](NC(=O)c1cnc(C#N)c(-c2cccc(OC(F)F)c2)c1N1CC[C@](C)(N)C1)C1CC1` [1-120, 4-[(3S)-3-amino-3-methylpyrrolidin-1-yl]-6-cyano-N-[(1S)-1-cyclopropylethyl]-5-[3-(difluoromethoxy)phenyl]pyridine-3-carboxamide], the EC50 in experiment [1] is 10 to 100 nM; in experiment [2] (Table A), less than 10 nM; in experiment [2] (Table B) it was less than 10 nM. Besides, the “Fold selectivity for SST5 vs SST2” value in experiment [2] (setting [3]) is listed as “+++ (+++=>500)”.
As to `C[C@]1(N)CCN(c2c(C(=O)NCc3ccon3)cnc(C#N)c2-c2cc(F)cc(Cl)c2)C1` [1-244, 4-[(3S)-3-amino-3-methylpyrrolidin-1-yl]-5-(3-chloro-5-fluorophenyl)-6-cyano-N-[(1,2-oxazol-3-yl)methyl]pyridine-3-carboxamide], the EC50 in experiment [1] was 100 to 1000 nM; in experiment [2] (Table A) it was less than 10 nM; in experiment [2] (Table B), less than 10 nM. The “Fold selectivity for SST5 vs SST2” value in experiment [2] (setting [3]) was “+++ (+++=>500)”.
For `Cc1cc(C)cc(-c2cncc(NC(=O)c3ccc(F)c(Cl)c3)c2N2CCC(CN)C2)c1` (stereo not shown) [N-(4-(3-(aminomethyl)pyrrolidin-1-yl)-5-(3,5-dimethylphenyl)pyridin-3-yl)-3-chloro-4-fluorobenzamide, reference compound], the EC50 is less than 10 nM in experiment [1] and more than 1000 nM in experiment [2] (Table B). Besides, in experiment [2] (Table B, numeric values for comparison compounds), the “Fold selectivity for SST5 vs SST2” value came out at 0.0055.
In the case of `C[C@H](NC(=O)c1cnc(C#N)c(-c2cc(F)cc(F)c2)c1N1CC[C@H](N)C1)C(F)(F)F` [1-71, 4-[(3S)-3-aminopyrrolidin-1-yl]-6-cyano-5-(3,5-difluorophenyl)-N-[(2S)-1,1,1-trifluoropropan-2-yl]pyridine-3-carboxamide], the results for the EC50 in experiment [1], in experiment [2] (Table A) and in experiment [2] (Table B) were 100 to 1000 nM, less than 10 nM and less than 10 nM, respectively. In experiment [2] (setting [3]), the “Fold selectivity for SST5 vs SST2” value is recorded as “+++ (+++=>500)”.
As for `COc1ncc(C(=O)N[C@@H](C)C2CC2)c(N2CC[C@](C)(N)C2)c1-c1cccc(OC(F)(F)F)c1` [1-154, 4-[(3S)-3-amino-3-methylpyrrolidin-1-yl]-N-[(1S)-1-cyclopropylethyl]-6-methoxy-5-[3-(trifluoromethoxy)phenyl]pyridine-3-carboxamide], the EC50 in experiment [1] is more than 1000 nM; in experiment [2] (Table A) it was less than 10 nM; in experiment [2] (Table B), less than 10 nM. In experiment [2] (setting [3]), the “Fold selectivity for SST5 vs SST2” value was “+++ (+++=>500)”.
On to `Cc1ncc(C(=O)NC2CC(F)(F)C2)c(N2CC[C@](C)(N)C2)c1-c1cc(F)cc(OC(F)F)c1` [1-172, 4-[(3S)-3-amino-3-methylpyrrolidin-1-yl]-N-(3,3-difluorocyclobutyl)-5-[3-(difluoromethoxy)-5-fluorophenyl]-6-methylpyridine-3-carboxamide], for which the EC50 was 100 to 1000 nM in experiment [1], less than 10 nM in experiment [2] (Table A) and less than 10 nM in experiment [2] (Table B). Also, the “Fold selectivity for SST5 vs SST2” value in experiment [2] (setting [3]) is given as “+++ (+++=>500)”.
For the molecule `CCOc1cc(-c2c(C(F)(F)F)ncc(C(=O)N[C@@H](C)C3CC3)c2N2CC[C@](C)(N)C2)ccn1` [1-206, 4-[(3S)-3-amino-3-methylpyrrolidin-1-yl]-N-[(1S)-1-cyclopropylethyl]-2′-ethoxy-2-(trifluoromethyl)-[3,4′-bipyridine]-5-carboxamide], the figures for the EC50 in experiment [1], in experiment [2] (Table A) and in experiment [2] (Table B) were more than 1000 nM, less than 10 nM and less than 10 nM, respectively. Moreover, the “Fold selectivity for SST5 vs SST2” value in experiment [2] (setting [3]) was “+++ (+++=>500)”.
Take `CCC(C)CNC(=O)c1cncc(-c2cc(F)cc(F)c2)c1N1CC[C@](C)(N)C1` (stereo partly drawn) [1-57, 4-[(3S)-3-amino-3-methylpyrrolidin-1-yl]-5-(3,5-difluorophenyl)-N-(2-methylbutyl)pyridine-3-carboxamide]: the EC50 in experiment [1] was 100 to 1000 nM; in experiment [2] (Table A), less than 10 nM; in experiment [2] (Table B) it was less than 10 nM. Moreover, the “Fold selectivity for SST5 vs SST2” value in experiment [2] (setting [3]) is reported as “++ (++=100 to 499)”.
On to `C[C@H](NC(=O)c1ncc(Cl)c(-c2cc(F)cc(F)c2)c1N1CC[C@](C)(N)C1)C1CC1` [4-1, 3-[(3S)-3-amino-3-methylpyrrolidin-1-yl]-5-chloro-N-[(1S)-1-cyclopropylethyl]-4-(3,5-difluorophenyl)pyridine-2-carboxamide], for which the EC50 was more than 1000 nM in experiment [1], less than 10 nM in experiment [2] (Table A) and less than 10 nM in experiment [2] (Table B). Further, in experiment [2] (setting [3]), the “Fold selectivity for SST5 vs SST2” value is “+++ (+++=>500)”.
For the molecule `C[C@]1(N)CCN(c2c(C(=O)NCC3CC3)cnc(C#N)c2-c2cc(F)cc(F)c2)C1` [1-86, 4-[(3S)-3-amino-3-methylpyrrolidin-1-yl]-6-cyano-N-(cyclopropylmethyl)-5-(3,5-difluorophenyl)pyridine-3-carboxamide], the results for the EC50 in experiment [1], in experiment [2] (Table A) and in experiment [2] (Table B) were 100 to 1000 nM, less than 10 nM and less than 10 nM, respectively. For the same molecule, the “Fold selectivity for SST5 vs SST2” value in experiment [2] (setting [3]) is given as “+++ (+++=>500)”.
Turning to `Cc1cccc2[nH]c(-c3cncc(C(=O)NCC(F)(F)F)c3N3CC[C@](C)(N)C3)nc12` [2-7, 4-[(3S)-3-amino-3-methylpyrrolidin-1-yl]-5-(4-methyl-1H-1,3-benzodiazol-2-yl)-N-(2,2,2-trifluoroethyl)pyridine-3-carboxamide], the EC50 is 100 to 1000 nM in experiment [1], less than 10 nM in experiment [2] (Table A) and less than 10 nM in experiment [2] (Table B). Further, the “Fold selectivity for SST5 vs SST2” value in experiment [2] (setting [3]) is on record as “++ (++=100 to 499)”.
`Cc1ncc(C(=O)NC2CCCC2)c(N2CC[C@](C)(N)C2)c1-c1ccnc(C(F)(F)F)c1` [1-258, 4-[(3S)-3-amino-3-methylpyrrolidin-1-yl]-N-cyclopentyl-2-methyl-2′-(trifluoromethyl)-[3,4′-bipyridine]-5-carboxamide]: the EC50 in experiment [1] was more than 1000 nM; in experiment [2] (Table A), less than 10 nM; in experiment [2] (Table B), less than 10 nM. In experiment [2] (setting [3]), the “Fold selectivity for SST5 vs SST2” value was “+++ (+++=>500)”.
